# From patent US20050222198A1, “Imidazo[4,5-c]pyridine compounds and methods of antiviral treatment” (priority 2003, published 2005)
# What was measured:
# Type in all cases: cell-based
# [1] = test system: HCV replicon; experiment: Anti-HCV assay/Replicon assay 2 (luciferase); conditions: Hepatitis C virus, 72 h, 3 days
# Protocol: • HCV Replicon Media • DMEM w/High Glucose (or MEM) • 1× Glutamine • 1× Sodium Pyruvate • 10% Heat Inactivated FBS • 1× Antibiotics Cell Culture Preparation • 1. Unthaw frozen stock in 10-12 mls of Media • 2. Allow cells to attach before adding G418 (4-6 hrs) • 3. Add G418 for a final concentration of 200 ug/mL (higher amounts are possible but cells grow slowly) • 4. Split cells 1:4 to 1:6 for optimal growth • 5. In-house replicon seems to maintain Luciferase signal for ˜20 passages HCV Replicon Assay • 1. Dilute compounds in 100 uL of HCV Replicon Media (without G418). If compounds are diluted in DMSO add DMSO to media (Final DMSO concentration should be <1%) • 2. Once cells have reached 80-90% confluency, trypsinize with 1× Trypsin • 3. […] These cells tend to clump if over trypsinized • 4. For 96 well format add 6,000-8,000 cells per well (G418 is withheld during compound testing) • 5. Incubate for 3 days at 37° C. Cells should be very close to confluent. • 6. Remove media and wash cells with 1×PBS • 7. Remove PBS and add 100 μL of 1×Promega Lysis Buffer • 8. Incubate cells at Room Temperature for 5-20 minutes • 9. Add 100 μL of room temperature Luciferase Substrate Solution (Promega) to Microfluor Black Plate (VWR) • 10. Thoroughly Mix Cell lysate (pipet up and down) before adding to Luciferase substrate • 11. Add 75 μL of lysate to the Luciferase substrate solution • 12. Read Plate On Top Count (FusionLucB program˜5 second read) • 13. Left over lysate can be frozen and used for later analysis Determination of Cytostatic Effect on MDBK Cells
# [2] = HCV CC50 assay protocol (MTT); conditions: HCV replicon cells
# Protocol: (§1) • HCV Replicon Media • DMEM w/High Glucose (or MEM) • 1×Glutamine • 1× Sodium Pyruvate • 10% Heat Inactivated FBS • 1× Antibiotics Cell Culture Preparation • 1. Unthaw frozen stock in 10-12 mls of Media • 2. Allow cells to attach before adding G418 (4-6 hrs) • 3. Add G418 for a final concentration of 200 ug/ml (higher amounts are possible but cells grow slowly) • 4. Split cells 1:4 to 1:6 for optimal growth • 5. In-house replicon seems to maintain Luciferase signal for ˜20 passages HCV Replicon Assay • 1 Dilute compounds in 100 uL of HCV Replicon Media (without G418). If compounds are diluted in DMSO add DMSO to media (Final DMSO concentration should be <1%) • 2. Once cells have reached 80-90% confluency, trypsinize with 1×Trypsin • 3. […] These cells tend to clump if over trypsinized • 4. For 96 well format add 6,000-8,000 cells per well (G418 is withheld during compound testing) • 5. Incubate for 3 days at 37° C. Cells should be very close to confluent. • 6. Remove media and add 200 μL of a 0.2 mg/mL MTT solution prepared in media. • 7. Incubate for 1.5 hours to 2 hours. • 8. Remove media and add 150 μL of DMSO • 9. Mix and incubate for 5 mins at room temperature • 10. Read plate at 530 nm in the plate reader. Results
# [3] = test system: HCV replicon cells; experiment: HCV CC50 assay protocol (MTT); conditions: 3 days
# Protocol: as §1
SMILES,EC50 [1],CC50 at 3 days [2],CC50 [3]
"Fc1ccccc1-c1nc2ccn(Cc3cc(-c4ccc(Cl)cc4)no3)cc-2n1 [Example 2, 5((3-(4-chlorophenyl)isoxazol-5-yl)methyl)-2-(2-fluorophenyl)-5H-imidazo[4,5-c]pyridine]",0.01 µM,26 µM,–
"Fc1ccc(-c2ccc(Cn3ccc4nc(-c5cccc(F)c5F)nc-4c3)cc2)c(F)c1 [Example 4, 5-(2,4-difluoro-biphenyl)methyl-2-(2,3-difluorophenyl)-5H-imidazo[4,5-c]pyridine]",0.01 µM,19 µM,–
"Fc1cccc(-c2nc3ccn(Cc4ccc(OC(F)(F)F)cc4)cc-3n2)c1F [Example 3A, 5-(4-(trifluoromethoxy)benzyl)-2-(2,3-difluorophenyl)-5H-imidazo[4,5-c]pyridine]",0.02 µM,34 µM,–
"Fc1cccc(-c2nc3ccn(Cc4cc(-c5ccc(Cl)cc5)no4)cc-3n2)c1F [Example 5, 5-((3-(4-chlorophenyl)isoxazol-5-yl)methyl)-2-(2,3-difluorophenyl)-5H-imidazo[4,5-c]pyridine]",0.0039 µM,10.8 µM,13.4 µM
